Measurements reported in patent publication US20190321334A1, “COMPOSITIONS AND METHODS FOR THE TREATMENT OF PRESBYOPIA” (priority 2018, published 2019).

Experiments:
presbyopic subjects [1] = experiment: Distance vision acuity after topical instillation; type: in vivo, human; conditions: baseline distance 20.20
Excerpt: (§1) Subject is an emmetrope over the age of 45 with a baseline near vision of 20.100 and baseline distance vision of 20.20. Topical administration to the eye of 1% w/v pilocarpine in saline solution results in an improvement of near vision to 20.40 (8a), however this improvement comes at the expense of a reduction in distance vision to 20.100 (8b). […] A proper drug carrier can also have a beneficial effect.
(§2) 1.75% w/v aceclidine was formulated in 0.9% w/v saline with 0.02% w/v BAK. Drops were instilled binocularly into a subject. Near vision testing was performed at 16 inches on a Precision Vision 16″ near test card. All near vision testing was binocular.
(§3) As aceclidine is an […], the clinical effectiveness may vary with different ratios. For the present studies a nearly exact 50:50 ratio of stereoisomers was measured as best determined by polarimetry.

presbyopic subjects [2] = experiment: Near vision acuity after topical instillation (near test card at 16 inches; Reading vs. Baseline at 40 cm; onset, duration, Efficacy Index); type: in vivo, human
Excerpt: as §1, §2, §3
In brief, the score is calculated by multiplying the lines of improvement in near visual acuity by the number of hours the improvement lasts. For example a score of: 5 is equal to +1 lines of improvement in near visual acuity for 5 hours; 10 is equal to +1.5 lines of improvement for 6.7 hours; 15 is equal to 2 lines of improvement for 7.5 hours; 20 is equal to 2.5 lines of improvement for 8 hours; 25 is equal to 3+ lines of improvement for 8.3 hours and 35 is equal to 3.75+ lines of improvement for 9 hours.
2 subjects instilled 2 drops each of the above formulation in each eye about 5 minutes apart.

[3] = 1% w/v pilocarpine or 1.55% w/v aceclidine in saline solution
[4] = 1% w/v pilocarpine or 1.55% w/v aceclidine in saline solution, emmetrope over 45, baseline near 20.100

Compound | distance vision (FIG. 1) (presbyopic subjects [1]; [3]) | near vision (FIG. 1) (presbyopic subjects [2]; [4]) | time period of near vision improvement (FIG. 1) (presbyopic subjects [2]; 1.55% w/v aceclidine in saline solution) | near vision improvement (presbyopic subjects [2]; 1.75% aceclidine, 2.5% mannitol, 0.01% tropicamide, 5% polysorbate 80) | near vision (FIG. 1) (presbyopic subjects [2]; aceclidine in carrier with 0.042% w/v tropicamide) | near vision (FIG. 1) (presbyopic subjects [2]; aceclidine in carrier: 5.5% HPβCD, 0.75% CMC, 0.25% NaCl, 0.01% BAK) | distance vision (FIG. 1) (presbyopic subjects [1]; 1% w/v pilocarpine with addition of 0.015% w/v tropicamide) | near vision (FIG. 1) (presbyopic subjects [2]; 1% w/v pilocarpine with addition of 0.015% w/v tropicamide, baseline near 20.100)
CC(=O)OC1CN2CCC1CC2 (racemic) [Aceclidine, aceclidine] | without any effect on the baseline distance vision | 20.40 | 6 h | up to 3 lines of vision acuity | 20.15 | < 20.20 |  | 
CC[C@@H]1C(=O)OC[C@@H]1Cc1cncn1C [pilocarpine] | 20.100 | 20.40 |  |  |  |  | 20.55 | 20.25
